Results taken from patent publication US9814233B2, “Composition comprising a pesticide, a surfactant and an alkoxylate of 2-propyheptylamine” (BASF SE, priority 2011, dated 2017).

Assays:
[1] = system: winter wheat (cultivar Cubus); test: Greenhouse test of herbicidal activity of glyphosate spray mixtures on winter wheat; type: in vivo; conditions: after 21 days
Method: (§1) For the greenhouse tests, winter wheat (cultivar Cubus) and soybean (cultivar Oxford) were sown or potted in loamy sandy soil to a depth of 1-2 cm. When the plants had reached a growth height of 10 to 25 cm (i.e., around 10 to 21 days after sowing), the spray mixtures were applied to the plants in a spraying cabin.
(§2) A concentrated formulation comprising glyphosate isopropylammonium in solution in water comprising the surfactants stated and amine alkoxylate A from Example 1 was diluted with deionized water and applied at a water application rate of 375 l/ha (140 g or 280 g of glyphosate/ha). The temperatures in the experimental period were between 18-35° C. During this time, the experimental plants received optimum watering, with nutrients being supplied via the water used for watering.
(§3) The herbicidal activity was evaluated by awarding scores to the treated plants (four each time) in comparison to the untreated control plants. The evaluation scale ranges from 0% to 100% activity. 100% activity means the complete death at least of those parts of the plant that are above ground.

[2] = system: soybean (cultivar Oxford); test: Greenhouse test of herbicidal activity of glyphosate spray mixtures on soybean; type: in vivo; conditions: after 21 days
Method: as §1, §2, §3

[3] = 140 g/ha glyphosate, without amine alkoxylate/surfactant
[4] = 280 g/ha glyphosate, without amine alkoxylate/surfactant
[5] = 140 g/ha glyphosate, amount 300 g/ha
[6] = 280 g/ha glyphosate, amount 300 g/ha

Row | Compound | Winter wheat efficacy [1, 3] [%] | Winter wheat efficacy [1, 4] [%] | Soybean efficacy [2, 3] [%] | Soybean efficacy [2, 4] [%] | Winter wheat efficacy [1, 5] [%] | Winter wheat efficacy [1, 6] [%] | Soybean efficacy [2, 5] [%] | Soybean efficacy [2, 6] [%]
1 | CC(C)N.O=C(O)CNCP(=O)(O)O [Without, glyphosate isopropylammonium] | 53 | 68 | 10 | 10 | – | – | – | –
2 | C10-13-alkylbenzenesulfonate, free acid [Surfactant A] | – | – | – | – | 84 | 90 | 64 | 71
